Source: patent US8084020B2, “Use of anti-CD1 antibodies for the modulation of immune responses” (Beth Israel Deaconess Medical Center, priority 2002, dated 2011)

How the values were obtained:
antigen presenting cells = experiment: Induction of IL-12 production by antigen presenting cells / monocytes in vitro; type: cell-based
Excerpt: (§1) PBMC were obtained from healthy adult volunteers of both sexes on Ficoll Hypaque density gradients and cultured in complete medium consisting of RPMI 1640 and 10% FBS. THP-1 is a human monocytic leukaemia cell line. Compared to other human myeloid cell lines, such as HL-60 and U937, THP-1 cells express CD1d on their surfaces. Because of this characteristic, the THP-1 cell line provides a valuable model for studying the mechanism involved in CD1d crosslinking by measuring the IL-12 and phospho kinases in the cell. THP-1 cells was cultured in complete medium consisting of RPMI 1640 and 10% FBS.
(§2) For the activation of these target cells, an anti-CD1 antibody was bound to a plate and then incubated with the cells. In particular, […] were coated with 10 μg/ml protein G overnight at 4° C. Wells were washed with PBS and blocked with BSA at room temperature for four hours. Antibody (10 μg/ml) was added to each well for four hours at room temperature. The wells were washed again to remove the unbound antibodies, and 1.5×10^5 to 2×10^5 cells were added to each well in RPMI 1640 culture media.
(§3) To measure the increase induction of IL-12 production by an anti-CD1 antibody, the concentrations of P40 and P70 forms of IL-12 in cultured supernatants were measured with a standard sandwich ELISA technique using combinations of monoclonal antibodies to different epitopes of each cytokine (FIGS. 4-22).

adhered PBMC = experiment: IL-1α release from adhered PBMC; type: cell-based, human
Excerpt: as §1, §2

THP-1 cells = experiment: IL-12 p40 release from THP-1 cells (ELISA); type: cell-based, human; details: FIG. 14; with and without PMA (0.1 ng/ml); 2% serum media; IFNγ (20 ng/ml); two days
Excerpt: as §1
as §2, with “The wells were washed again to remove the unbound antibodies, and 1.5×10^5 to 2×10^5 cells were added to each well in RPMI 1640 culture media.” left out
as §3

IFNγ: cytokine
effect of cytokine on anti-CD1 antibody enhanced production of IL-12 (antigen presenting cells): increased the ability of anti-CD1 antibodies to enhance production of IL-12

lipopolysaccharide [LPS]
levels of IL-12 stimulated relative to 51.1 anti-CD1 antibody (antigen presenting cells): comparable or lower levels of IL-12 | induction of IL-1 relative to 51.1 anti-CD1 antibody (adhered PBMC): more potent inducer of IL-1

CCCCCCCCCCCCCC(=O)O[C@@H]1[C@@H](C)[C@@]2(O)[C@@H](C=C(CO)C[C@]3(O)C(=O)C(C)=C[C@@H]23)[C@@H]2C(C)(C)[C@]12OC(C)=O [PMA]
effect of PMA on IL-12 p40 released from THP-1 cells (THP-1 cells): no significant differences

B1: IL-4: cytokine (protein, UniProt P05112 25-153, looked up)
Interleukin-4: HKCDITLQEIIKTLNSLTEQKTLCTELTVTDIFAASKNTTEKETFCRAATVLRQFYSHHEKDTRCLGATAQQFHRHKQLIRFLKRLDRNLWGLAGLNSCPVKEANQSTLENFLERLKTIMREKYSKCSS
effect of cytokine on anti-CD1 antibody enhanced production of IL-12 (antigen presenting cells): increased the ability of anti-CD1 antibodies to enhance production of IL-12
